The target in one test is EZH2 (Homo sapiens, UniProt Q15910). Nature of the test: EZH2 activity inhibition assay (rPRC2, 3H SAM, biotinylated oligonucleosomes, FlashPlate). The class given is biochemical. The following applies: rPRC2, 2 nM EZH2, 0.2 μM 3H SAM, top concentration 80 μM. The protocol: (§1) EZH2 Assay: Assays were carried out by mixing rPRC2 together with biotinylated oligonucleosome substrates in the presence of the radio-labeled enzyme co-factor, S-adenosyl-L-methionine (^3H SAM) (Perkin Elmer) and monitoring the enzymatically mediated transfer of tritiated methyl groups from ^3H SAM to histone lysine residues. The amount of resulting tritiated methyl histone product was measured by first capturing the biotinylated oligonucleosomes in streptavidin (SAV) coated FlashPlates (Perkin Elmer), followed by a wash step to remove un-reacted ^3H SAM, and then counting on a TopCount NXT 384 well plate scintillation counter (Perkin Elmer).
A 12.5 μL volume of the HMT enzyme, H3K27me3 peptide and oligonucleosome substrate in assay buffer was added to each well of the assay plate using a Multidrop Combi (ThermoFisher). Compounds were pre-incubated with the enzyme for 20 min, followed by initiation of the methyltransferase reaction by addition of 12.5 μL of 3H SAM in assay buffer (final volume=25 μL). […] Stopped reactions were transferred to SAV coated Flashplates (Perkin Elmer), incubated for 120 min, washed with a plate washer, and then read on the TopCount NXT (1.0 min/well) to measure the amount of methyl histone product formed during the reaction.

A further test addresses Y641N EZH2 (Homo sapiens, UniProt Q15910, Y641N). Nature of the test: Y641N EZH2 activity inhibition assay (as EZH2 assay, reconstituted H3K27Me2 oligonucleosomes as substrate). The class given is biochemical. The following applies: Y641N EZH2 mutant enzyme. Here is the method:
as §1, with “Elmer). The final assay conditions for EZH2 were as follows: 50 mM Tris Buffer pH 8.5, 1 mM DTT, 69 μM Brij-35 detergent, 5.0 mM MgCl2, 0.1 mg/mL BSA, 0.2 μM ^3H SAM, 0.2 μM biotinylated oligonucleosomes, 3.6 μM H3K27me3 peptide and 2 nM EZH2.” for “Elmer).”
A 12.5 μL volume of the HMT enzyme, H3K27me3 peptide and oligonucleosome substrate in assay buffer was added to each well of the assay plate using a Multidrop Combi (ThermoFisher). Compounds were pre-incubated with the enzyme for 20 min, followed by initiation of the methyltransferase reaction by addition of 12.5 μL of 3H SAM in assay buffer (final volume=25 μL). The final concentrations of compounds ranged from a top default concentration of 80 μM down to 0.16 μM in ten 2-fold dilution steps. Reactions were carried out for 60 minutes and quenched with 20 μL per well of 1.96 mM SAH, 50 mM Tris PH 8.5, 200 mM EDTA. Stopped reactions were transferred to SAV coated Flashplates (Perkin Elmer), incubated for 120 min, washed with a plate washer, and then read on the TopCount NXT (1.0 min/well) to measure the amount of methyl histone product formed during the reaction.

Chain of Y641N EZH2 (Q15910 whole entry Y641N): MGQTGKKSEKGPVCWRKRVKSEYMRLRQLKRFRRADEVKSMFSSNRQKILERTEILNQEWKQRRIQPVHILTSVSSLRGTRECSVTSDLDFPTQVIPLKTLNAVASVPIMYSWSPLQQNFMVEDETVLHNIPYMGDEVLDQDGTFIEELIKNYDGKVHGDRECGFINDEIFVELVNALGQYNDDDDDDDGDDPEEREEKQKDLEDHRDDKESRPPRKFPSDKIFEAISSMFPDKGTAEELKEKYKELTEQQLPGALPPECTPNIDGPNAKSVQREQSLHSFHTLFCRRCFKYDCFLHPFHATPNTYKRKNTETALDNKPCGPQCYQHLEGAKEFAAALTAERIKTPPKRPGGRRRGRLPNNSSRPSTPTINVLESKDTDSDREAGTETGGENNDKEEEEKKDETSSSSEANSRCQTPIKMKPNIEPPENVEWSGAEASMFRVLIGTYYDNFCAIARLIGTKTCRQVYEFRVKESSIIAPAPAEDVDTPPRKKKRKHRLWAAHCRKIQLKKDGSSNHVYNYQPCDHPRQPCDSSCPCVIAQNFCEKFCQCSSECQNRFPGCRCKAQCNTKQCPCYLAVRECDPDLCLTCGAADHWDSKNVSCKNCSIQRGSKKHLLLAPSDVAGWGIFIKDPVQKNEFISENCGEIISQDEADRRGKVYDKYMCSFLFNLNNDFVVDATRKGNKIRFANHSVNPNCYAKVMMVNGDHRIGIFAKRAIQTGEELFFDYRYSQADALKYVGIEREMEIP
Chain of Y641N EZH2 (O75530 whole entry partner): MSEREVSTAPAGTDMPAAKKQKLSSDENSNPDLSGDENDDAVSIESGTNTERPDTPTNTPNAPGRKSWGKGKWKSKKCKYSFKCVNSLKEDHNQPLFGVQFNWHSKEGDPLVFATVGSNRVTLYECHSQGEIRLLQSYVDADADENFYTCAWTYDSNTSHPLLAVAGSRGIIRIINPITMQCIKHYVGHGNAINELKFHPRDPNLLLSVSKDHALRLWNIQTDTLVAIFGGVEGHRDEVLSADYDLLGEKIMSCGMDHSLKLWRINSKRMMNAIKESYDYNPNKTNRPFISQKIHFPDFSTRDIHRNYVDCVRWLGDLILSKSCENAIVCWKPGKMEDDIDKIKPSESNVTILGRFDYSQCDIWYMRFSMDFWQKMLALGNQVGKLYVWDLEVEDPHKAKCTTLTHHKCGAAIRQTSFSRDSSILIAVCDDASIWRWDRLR
Chain of Y641N EZH2 (Q15022 whole entry partner): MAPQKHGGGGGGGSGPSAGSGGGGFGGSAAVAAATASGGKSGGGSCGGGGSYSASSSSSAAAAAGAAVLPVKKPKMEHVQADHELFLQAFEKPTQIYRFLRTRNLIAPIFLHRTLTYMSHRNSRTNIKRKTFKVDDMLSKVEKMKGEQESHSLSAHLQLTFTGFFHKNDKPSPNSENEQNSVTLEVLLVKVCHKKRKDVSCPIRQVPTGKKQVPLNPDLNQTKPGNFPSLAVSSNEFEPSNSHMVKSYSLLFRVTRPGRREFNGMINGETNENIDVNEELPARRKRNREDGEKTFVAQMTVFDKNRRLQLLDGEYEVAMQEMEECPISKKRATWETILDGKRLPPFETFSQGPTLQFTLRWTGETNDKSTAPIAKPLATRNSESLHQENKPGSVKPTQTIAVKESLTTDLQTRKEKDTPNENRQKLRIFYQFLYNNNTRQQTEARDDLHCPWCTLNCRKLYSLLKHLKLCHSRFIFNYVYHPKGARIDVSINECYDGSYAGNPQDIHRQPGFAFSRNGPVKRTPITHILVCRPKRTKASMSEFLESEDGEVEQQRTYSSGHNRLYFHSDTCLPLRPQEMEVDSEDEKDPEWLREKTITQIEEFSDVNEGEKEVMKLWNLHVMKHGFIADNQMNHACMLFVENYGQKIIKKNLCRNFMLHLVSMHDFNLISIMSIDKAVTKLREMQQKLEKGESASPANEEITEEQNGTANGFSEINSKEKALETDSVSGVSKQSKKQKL
Chain of EZH2 (Q15910 whole entry): as the sequence (Q15910 whole entry Y641N) above, with N641Y counted along it
Chain of EZH2 (O75530 whole entry partner): as the sequence (O75530 whole entry partner) above
Chain of EZH2 (Q15022 whole entry partner): as the sequence (Q15022 whole entry partner) above

One may read the IC50 as the concentration that inhibits the measured activity by half. Turning to `COc1cc(Oc2ccccc2)ccc1C(=O)NCc1c(C)cc(C)[nH]c1=O` [Compound I-32, N-((2-hydroxy-4,6-dimethylpyridin-3-yl)methyl)-2-methoxy-4-phenoxybenzamide], the values for the IC50 on EZH2 and at Y641N EZH2 were < 1 µM and 1 to 10 µM, respectively.
As to `Cc1cc(C)c(CNC(=O)c2ccc(Cc3ccccc3)cc2)c(=O)[nH]1` [Compound I-34, 4-benzyl-N-((2-hydroxy-4,6-dimethylpyridin-3-yl)methyl)benzamide], the IC50 on EZH2 was < 1 µM; on Y641N EZH2 it was 1 to 10 µM.
For `Cc1ccc(OC(C)c2ccc(C(=O)NCc3c(C)cc(C)[nH]c3=O)cc2)cc1` (centres unmarked) [Compound I-35, N-((2-hydroxy-4,6-dimethylpyridin-3-yl)methyl)-4-(1-(p-tolyloxy)ethyl)benzamide] the same measures were < 1 µM and 1 to 10 µM.
The corresponding values for `Cc1cc(C)c(CNC(=O)c2ccc(CN(C)c3ccccc3)cc2)c(=O)[nH]1` [Compound I-36, N-((2-hydroxy-4,6-dimethylpyridin-3-yl)methyl)-4-((methyl(phenyl)amino)methyl)benzamide] are 10 to 50 µM and > 80 µM.
`Cc1cc(C)c(CNC(=O)c2ccc(Oc3ccccc3)c(C)c2)c(=O)[nH]1` [Compound I-37, N-((2-hydroxy-4,6-dimethylpyridin-3-yl)methyl)-3-methyl-4-phenoxybenzamide]: the IC50 against EZH2 and on Y641N EZH2 was 1 to 10 µM in each case.
With `Cc1cc(C)c(CNC(=O)c2ccc(C(C)Oc3ccccc3C)cc2)c(=O)[nH]1` (centres unmarked) [Compound I-38, N-((2-hydroxy-4,6-dimethylpyridin-3-yl)methyl)-4-(1-(o-tolyloxy)ethyl)benzamide], the IC50 against EZH2 is < 1 µM; against Y641N EZH2, 1 to 10 µM.
The corresponding values for `Cc1cccc(OC(C)c2ccc(C(=O)NCc3c(C)cc(C)[nH]c3=O)cc2)c1` (centres unmarked) [Compound I-39, N-((2-hydroxy-4,6-dimethylpyridin-3-yl)methyl)-4-(1-(m-tolyloxy)ethyl)benzamide] are < 1 µM and < 1 µM.
Regarding `Cc1cc(C)c(CNC(=O)c2ccc(CNc3ccccc3)cc2)c(=O)[nH]1` [Compound I-40, N-((2-hydroxy-4,6-dimethylpyridin-3-yl)methyl)-4-((phenylamino)methyl)benzamide], the IC50 on EZH2 lay within 1 to 10 µM; on Y641N EZH2, 10 to 50 µM.
In the case of `Cc1cc(C)c(CNC(=O)c2ccc(C(C)Oc3ccccc3F)cc2)c(=O)[nH]1` (centres unmarked) [Compound I-41, 4-(1-(2-fluorophenoxy)ethyl)-N-((2-hydroxy-4,6-dimethylpyridin-3-yl)methyl)benzamide], the IC50 on EZH2 and against Y641N EZH2 was < 1 µM each time.
Consider `Cc1cc(C)c(CNC(=O)c2ccc(C(C)Oc3cccc(F)c3)cc2)c(=O)[nH]1` (centres unmarked) [Compound I-42, 4-(1-(3-fluorophenoxy)ethyl)-N-((2-hydroxy-4,6-dimethylpyridin-3-yl)methyl)benzamide], for which the IC50 against EZH2 and against Y641N EZH2 was < 1 µM each time.
Consider `Cc1cc(C)c(CNC(=O)c2ccc(C(Oc3ccccc3)C(C)C)cc2)c(=O)[nH]1` (centres unmarked) [Compound I-43, N-((2-hydroxy-4,6-dimethylpyridin-3-yl)methyl)-4-(2-methyl-1-phenoxypropyl)benzamide], for which the figures for the IC50 against EZH2 and at Y641N EZH2 were 10 to 50 µM and > 50 µM, respectively.
Turning to `CCC(Oc1ccccc1)c1ccc(C(=O)NCc2c(C)cc(C)[nH]c2=O)cc1` (centres unmarked) [Compound I-44, N-((2-hydroxy-4,6-dimethylpyridin-3-yl)methyl)-4-(1-phenoxypropyl)benzamide], the IC50 on EZH2 and at Y641N EZH2 was < 1 µM throughout.
For the molecule `Cc1cc(C)c(CNC(=O)c2ccc3c(c2)CCC3Oc2ccccc2)c(=O)[nH]1` (centres unmarked) [Compound I-45, N-((2-hydroxy-4,6-dimethylpyridin-3-yl)methyl)-1-phenoxy-2,3-dihydro-1H-indene-5-carboxamide], the IC50 is > 50 µM at EZH2 and > 80 µM against Y641N EZH2.
In the case of `Cc1cc(C)c(CNC(=O)c2ccc(C(C)Oc3ccc(F)cc3)cc2)c(=O)[nH]1` (centres unmarked) [Compound I-46, 4-(1-(4-fluorophenoxy)ethyl)-N-((2-hydroxy-4,6-dimethylpyridin-3-yl)methyl)benzamide], the IC50 against EZH2 and against Y641N EZH2 was < 1 µM throughout.
As to `Cc1cc(C(F)(F)F)[nH]c(=O)c1CNC(=O)c1ccc(Oc2ccccc2)cc1` [Compound I-47, N-((2-hydroxy-4-methyl-6-(trifluoromethyl)pyridin-3-yl)methyl)-4-phenoxybenzamide], the values for the IC50 on EZH2 and against Y641N EZH2 were > 50 µM and 10 to 50 µM, respectively.
`Cc1cc(C)c(CNC(=O)c2ccc(CCc3ccccc3)cc2)c(=O)[nH]1` [Compound I-48, N-((2-hydroxy-4,6-dimethylpyridin-3-yl)methyl)-4-phenethylbenzamide]: the values for the IC50 on EZH2 and on Y641N EZH2 were 1 to 10 µM and > 80 µM, respectively.
For the molecule `Cc1cc(C)c(CNC(=O)c2ccc(C(CC(C)C)Oc3ccccc3)cc2)c(=O)[nH]1` (centres unmarked) [Compound I-49, N-((2-hydroxy-4,6-dimethylpyridin-3-yl)methyl)-4-(3-methyl-1-phenoxybutyl)benzamide], the IC50 at EZH2 and at Y641N EZH2 was 10 to 50 µM throughout.
As for `Cc1cc(C)c(CNC(=O)c2ccc([C@@H](C)Oc3ccccc3)cc2C)c(=O)[nH]1` [Compound I-50], the IC50 is 1 to 10 µM on EZH2 and > 80 µM on Y641N EZH2.
As to `Cc1cc(C)c(CNC(=O)c2ccc(C3Cc4ccccc4O3)cc2)c(=O)[nH]1` (centres unmarked) [Compound I-51, 4-(2,3-dihydrobenzofuran-2-yl)-N-((2-hydroxy-4,6-dimethylpyridin-3-yl)methyl)benzamide], the values for the IC50 against EZH2 and against Y641N EZH2 were 1 to 10 µM and > 80 µM, respectively.
Consider `Cc1cc(C)c(CNC(=O)c2ccc3c(c2)CCCC3Oc2ccccc2)c(=O)[nH]1` (centres unmarked) [Compound I-52, N-((2-hydroxy-4,6-dimethylpyridin-3-yl)methyl)-5-phenoxy-5,6,7,8-tetrahydronaphthalene-2-carboxamide], for which the IC50 against EZH2 and against Y641N EZH2 was 10 to 50 µM each time.
On to `COC(c1ccccc1)c1ccc(C(=O)NCc2c(C)cc(C)[nH]c2=O)cc1` (centres unmarked) [Compound I-53, N-((2-hydroxy-4,6-dimethylpyridin-3-yl)methyl)-4-(methoxy(phenyl)methyl)benzamide], for which the half-maximal inhibitory concentration (IC50) against EZH2 and on Y641N EZH2 was 10 to 50 µM in each case.
As to `Cc1cc(C)c(CNC(=O)c2ccc(COc3ccccc3)c(C)c2)c(=O)[nH]1` [Compound I-54, N-((2-hydroxy-4,6-dimethylpyridin-3-yl)methyl)-3-methyl-4-(phenoxymethyl)benzamide], the IC50 was < 1 µM against EZH2 and 1 to 10 µM on Y641N EZH2.
For the molecule `Cc1cc(C)c(CNC(=O)c2ccc([C@H](C)Oc3ccccc3)cc2C)c(=O)[nH]1` [Compound I-55, (S)—N-((2-hydroxy-4,6-dimethylpyridin-3-yl)methyl)-2-methyl-4-(1-phenoxyethyl)benzamide], the IC50 at EZH2 and at Y641N EZH2 was < 1 µM in each case.
For the molecule `Cc1cc(C)c(CNC(=O)c2ccc(C(C)n3ccccc3=O)cc2)c(=O)[nH]1` (centres unmarked) [Compound I-56, N-((2-hydroxy-4,6-dimethylpyridin-3-yl)methyl)-4-(1-(2-oxopyridin-1(2H)-yl)ethyl)benzamide], the IC50 is 1 to 10 µM on EZH2 and > 80 µM at Y641N EZH2.
As to `Cc1nc(C)c(CNC(=O)c2ccc(Oc3ccccc3)cc2)c(=O)[nH]1` [Compound I-59, N-((4-hydroxy-2,6-dimethylpyrimidin-5-yl)methyl)-4-phenoxybenzamide], the IC50 at EZH2 and at Y641N EZH2 was 1 to 10 µM in each case.

Source of the values: patent US9206128B2 (Constellation Pharmaceuticals, Inc., priority 2011, dated 2015).
